Reference: patent US20240219403A1, “METHODS FOR INHIBITING KRAS ONCOPROTEIN THROUGH ENHANCED GTPASE ACTIVITY” (Memorial Sloan-Kettering Cancer Center, priority 2021, published 2024)

Tests used:
[1] = biological target: T1, KRAS^G12C (Homo sapiens, UniProt P01116, G12C); assay: RAS-binding domain (RBD) pulldown of active (GTP-bound) KRAS in KRAS^G12C-mutant cell lines treated with G12C inhibitors; assay type: cell-based
T1 construct: endogenous in cells; host or cells: H358, H2122, H2030, SW1573 (KRAS G12C-mutant lung cancer lines, ATCC)
Protocol: This was performed as described previously (42) by using the RAS activation kit (Thermo Scientific). Briefly, 50 μg whole cell lysates were incubated with 40 μg GST-RBD and 100 μL glutathione beads for 60 min followed by three washes in NP40 wash buffer and elution of pull-down fractions with 2×SDS PAGE loading dye. The samples were then subjected to western blotting with a KRAS specific (WH0003845M1) antibody (43).

[2] = biological target: T1, KRAS^G12C; assay: GTPase assays of purified GTP-loaded KRAS^G12C incubated with GAP proteins (γ-phosphate, α-phosphate, continuous phosphate release); assay type: biochemical
Protocol: GTP[γ^32P] hydrolysis assay. KRAS proteins (0.5 μg) were reacted with 0.04 μM GTP[γ^32P] (6000 Ci/mmol; PerkinElmer Life Sciences) in 100 μL loading buffer (50 mM HEPES, pH 7.5, 50 mM NaCl, 1 mM DTT, 0.1 mM EGTA, 10 mM EDTA, and 1 mg/mL BSA) for 10 min at 30° C. (5, 40). Loading reactions were stopped by placing on ice and adding MgCl2 to a final concentration of 20 mM. The GTPase assays were performed at 30° C. in 100 μL mixtures containing 20 nM of loaded KRAS and either hydrolysis buffer (25 mM HEPES pH 7.5, 50 mM NaCl, 1 mM DTT, 1 mM MgCl2 and 1 mg/mL BSA) alone, or in combination with WCE or purified RGS3 (0.08-0.4 μg/μL). Equimolar comparisons of NF1, RASA1 and RGS3 were carried out using the continuous hydrolysis assay (see below). Reactions were stopped at the indicated time by filtering through 0.45-μm nitrocellulose membrane filters. The filters were washed 3 times with 0.2 mL of ice-cold hydrolysis buffer, air dried, and processed by autoradiography. Reaction rates were determined by fitting an exponential curve to the data, which was normalized to the baseline value. […]
Continuous hydrolysis assay (two-step detection of inorganic phosphate). […] The reaction was monitored by reading the absorbance at 360 nm every 10 to 20 s for ˜16-60 min at room temperature. […]

Compound	time required for maximal inhibition of KRAS in cells ([1]; media with 10% serum) [min]	time required for maximal inhibition of KRAS in cells ([1]; serum-deprived media (suppresses nucleotide exchange)) [min]	RGS3-assisted hydrolysis by KRAS^G12C slower than NF1-stimulated hydrolysis by KRAS^WT [2]	effect on GTP-hydrolysis by KRAS^G12C ([2]; purified proteins)
C=CC(=O)N1CCN(c2nc(OC[C@@H]3CCCN3C)nc3c2CCN(c2cccc4cccc(C)c24)C3)C[C@@H]1CC#N [MRTX1257]	~60	~20	–	–
RGS3: regulator of G protein signaling 3, recombinant p75/p25 variants; GAP for Gαi/q subunit	–	–	1-2 orders of magnitude	enhanced GTP-hydrolysis
